{"source": "patent US5808062A", "about": "“Pyrone derivatives as protease inhibitors and antiviral agents” (Warner-Lambert Company, priority 1994, dated 1998)", "key": {"HIV-I Protease": {"target": "T1, HIV-I Protease (Human immunodeficiency virus type 1 group M subtype B, UniProt P04585)", "T1 construct": "HIV-I Protease: The enzyme is obtained from Bachem Bioscience Inc; purchased Bachem Bioscience Inc", "experiment": "HIV Protease Inhibition (undecapeptide substrate hydrolysis, HPLC)", "format": "biochemical", "settings": "averaged; substrate 40 μM, 37° C., pH 4.7 DTT buffer, 5 minutes; read-out: 50% Inhibition Concentration (Averaged)", "protocol": "DTT Buffer: 1.0 mM dithiothreitol (DTT) was prepared fresh daily in 0.1% polyethylene glycol (mw 8000) 80 mM NaOAc, 160 mM NaCl, 1.0 mM EDTA, and brought to pH 4.7 with HCl.\nHIV-I Protease: The enzyme is obtained from Bachem Bioscience Inc. The undiluted enzyme is thawed from -80° C. and diluted 50-fold with DTT buffer. The solution is always kept at 0° C. on ice water and used in the experiment within 20 minutes after thawing.\nEnzyme Substrate: Substrate III from Bachem Bioscience Inc. is the undecapeptide H-His-Lys-Ala-Arg-Val-Leu-p-Nitrophenylalanine-Glu-Ala-Norleucine-Ser-NH2 (>97% purity). A 200 μM stock solution in DTT buffer is prepared and stored on ice. Substrate solution is prepared fresh daily.\nTest Compound: 10 mM inhibitor (I) in dimethyl sulfoxide (DMSO) is diluted to 200 μM with DTT buffer. From the 200 μM stock solution is made a 10 μM stock solution with 2% DMSO in DTT buffer. The two inhibitor solutions are used to make final [I]=100, 50, 20, 10, 5, 2, 1, 0.5 and 0 μM with 2% DMSO in DTT buffer in each reaction well (total inhibitor volume of 50 μl).\nTo each reaction well is added 20 μl of substrate (final concentration of 40 μM), 50 μl of inhibitor (at a concentration such that final dilution will produce the test concentration) and 20 μl of DTT buffer. The reaction plate (96 wells) is incubated at 37° C. for at least 5 minutes.\n10 μl of the diluted protease is added to the reaction well while the reaction plate is shaking. Once shaken for 10 seconds, the plate is returned to the heating block at 37° C. (Final reaction volume=100 μl.)\nThe reaction is incubated for 5 minutes at 37° C. The reaction is stopped by placing the reaction plate on the shaker and adding 20 μl of 10% trifluoroacetic acid (TFA) and shaking for 10 seconds. The amount of proteolysis is then determined by separation of noncleaved substrate and two cleaved products with reverse-phase HPLC, while measuring absorbance at 220 nm to determine the relative peak areas of the three components. The relative peak areas are used to calculate % conversion to product as a function of inhibitor concentration. The data is plotted as % Control (the ratio of % conversion in the presence and absence of inhibitor×100) versus inhibitor concentration and fit with the equation Y=100/1+(X/IC50)^A, where IC50 is the inhibitor concentration at 50% inhibition and A is the slope of the inhibition curve."}, "HIV": {"tested_on": "HIV", "settings": "R. Nagorny et al., AIDS 1993; cited from earlier work"}, "[1]": {"tested_on": "Staphylococcus aureus UC-76", "experiment": "Antibacterial activity, microtitration dilution method", "format": "cell-based", "settings": "UC76, read-out: Antibacterial Activity, minimum inhibitory concentration (MIC)", "description": "(§1) The compounds of the invention display antibacterial activity when tested by the microtitration dilution method as described in Heifetz, et al., Antimicr. Agents. & Chemoth. 6:124 (1974) which is incorporated herein by reference.\n(§2) By use of the above referenced method, the following minimum inhibitory concentration values (MICs in μg/mL) were obtained for representative compounds of the invention vs. clinically relevant gram positive pathogens which have become highly resistant to conventional therapy in recent years."}, "[2]": {"tested_on": "Streptococcus pneumonia 5V-1", "experiment": "Antibacterial activity, microtitration dilution method", "format": "cell-based", "settings": "Streptococcus pneumoniae, 5V1, read-out: Antibacterial Activity, minimum inhibitory concentration (MIC)", "description": "as §1, §2"}, "[3]": {"tested_on": "Staphylococcus aureus H228", "experiment": "Antibacterial activity, microtitration dilution method", "format": "cell-based", "settings": "read-out: Antibacterial Activity, minimum inhibitory concentration (MIC)", "description": "as §1, §2"}, "[4]": {"tested_on": "Enterococcus foecalis MGH2", "experiment": "Antibacterial activity, microtitration dilution method", "format": "cell-based", "settings": "read-out: Antibacterial Activity, minimum inhibitory concentration (MIC)", "description": "as §1, §2"}, "[5]": {"tested_on": "Streptococcus pyogenes C203", "experiment": "Antibacterial activity, microtitration dilution method", "format": "cell-based", "settings": "read-out: Antibacterial Activity, minimum inhibitory concentration (MIC)", "description": "as §1, §2"}}}
{"molecule": "CC(C)c1ccccc1Sc1c(O)cc(-c2cc(Cl)cc(Cl)c2)oc1=O", "note": "[Example 193, 6-(3,5-Dichlorophenyl)-4-hydroxy-3-[(2-isopropylphenyl)thio]-2H-pyran-2-one]", "values": [{"measurement": "IC50", "setting": "HIV-I Protease", "value": 26, "unit": "nM"}]}
{"molecule": "CC(=O)CC(c1ccccc1)c1c(O)c2ccccc2oc1=O", "note": "(stereo not drawn) [Warfarin, 3-(α-acetonylbenzyl)-4-hydroxycoumarin]", "values": [{"measurement": "inhibition of HIV infection (in words)", "setting": "HIV", "value": "inhibiting cell-free and cell-mediated HIV infection"}]}
{"molecule": "O=c1oc(-c2ccccc2Cl)cc(O)c1SCc1ccccc1", "note": "[Example 2, 6-(2-chlorophenyl)-4-hydroxy-3-[(phenylmethyl)thio]-2H-pyran-2-one]", "values": [{"measurement": "MIC", "setting": "[1]", "value": 12.5, "unit": "µg/mL"}, {"measurement": "MIC", "setting": "[2]", "value": 12.5, "unit": "µg/mL"}, {"measurement": "MIC", "setting": "[3]", "value": 12.5, "unit": "µg/mL"}, {"measurement": "MIC", "setting": "[4]", "value": 25, "unit": "µg/mL"}, {"measurement": "MIC", "setting": "[5]", "value": 12.5, "unit": "µg/mL"}]}
{"molecule": "O=c1oc(-c2ccc(OCc3ccccc3)cc2)cc(O)c1SCCc1ccccc1", "note": "[Example 29, 4-Hydroxy-3-[(2-phenylethyl)thio]-6-[4-(phenylmethoxy)phenyl]-2H-pyran-2-one]", "values": [{"measurement": "MIC", "setting": "[1]", "value": 25, "unit": "µg/mL"}, {"measurement": "MIC", "setting": "[2]", "value": 25, "unit": "µg/mL"}, {"measurement": "MIC", "setting": "[3]", "value": 25, "unit": "µg/mL"}, {"measurement": "MIC", "setting": "[4]", "value": 50, "unit": "µg/mL"}, {"measurement": "MIC", "setting": "[5]", "value": 25, "unit": "µg/mL"}]}
{"molecule": "CC(C)c1ccccc1Sc1c(O)cc(-c2cccc(-c3ccccc3)c2)oc1=O", "note": "[Example 167, 6-(1,1'-Biphen-3-yl)-4-hydroxy-3-[(2-isopropylphenyl)thio]-2H-pyran-2-one]", "values": [{"measurement": "MIC", "setting": "[1]", "value": 6.2, "unit": "µg/mL"}, {"measurement": "MIC", "setting": "[2]", "value": 6.2, "unit": "µg/mL"}, {"measurement": "MIC", "setting": "[3]", "value": 6.2, "unit": "µg/mL"}, {"measurement": "MIC", "setting": "[4]", "value": 12.5, "unit": "µg/mL"}, {"measurement": "MIC", "setting": "[5]", "value": 6.2, "unit": "µg/mL"}]}
{"molecule": "CCC(=O)Oc1cc(-c2ccccc2)oc(=O)c1SCc1ccccc1", "note": "[Example 49, 2-Oxo-6-phenyl-3-[ (phenylmethyl)thio]-2H-pyran-4-ylpropanoic acid ester]", "values": [{"measurement": "IC50", "setting": "HIV-I Protease", "value": 1600, "unit": "nM"}]}
{"molecule": "O=c1oc(-c2ccc(OCCO)cc2)cc(O)c1SCCc1ccccc1", "note": "[Example 160, 4-Hydroxy-6-[4-(2-hydroxyethoxy)phenyl]-3-[(2-phenylethyl)thio]-2H-pyran-2-one]", "values": [{"measurement": "IC50", "setting": "HIV-I Protease", "value": 360, "unit": "nM"}]}
{"molecule": "CC(C)c1ccccc1Sc1c(O)cc(-c2ccc(OCc3cccnc3)cc2)oc1=O", "note": "[Example 172, 4-Hydroxy-3-[(2-isopropylphenyl)thio]-6-[4-(pyridin-3-ylmethoxy)phenyl]-2H-pyran-2-one]", "values": [{"measurement": "MIC", "setting": "[1]", "value": 50, "unit": "µg/mL"}, {"measurement": "MIC", "setting": "[2]", "value": 50, "unit": "µg/mL"}, {"measurement": "MIC", "setting": "[3]", "value": 50, "unit": "µg/mL"}, {"measurement": "MIC", "setting": "[4]", "value": 100, "unit": "µg/mL"}, {"measurement": "MIC", "setting": "[5]", "value": 50, "unit": "µg/mL"}]}
{"molecule": "Cc1cc(C)cc(-c2cc(O)c(Sc3ccccc3C(C)C)c(=O)o2)c1", "note": "[Example 169, 6-(3,5-Dimethylphenyl)-4-hydroxy-3-[(2-isopropylphenyl)-thio]-2H-pyran-2-one]", "values": [{"measurement": "IC50", "setting": "HIV-I Protease", "value": 15, "unit": "nM"}]}
